≈ marks a conversion by molar mass, not a printed value.

Assay type in all cases: cell-based
The test system of assay [1] is S. aureus ATCC 29213 (SA101, MSSA). As to the kind of experiment: Minimum inhibitory concentration assay, SA101. Particulars: Staphylococcus aureus; S. aureus ATCC 29213, MSSA control; read-out: MICs SA101. In outline: (§1)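 Inoculum of 0.5 McFarland was diluted 1:125 in Mueller Hinton Broth. Streptococcus media were blood-supplemented. Plates with serial compound dilutions were incubated overnight at 37° C, and MIC was recorded as the lowest inhibitory concentration.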

Assay [2] has as its system S. aureus ATCC 13709 (SA100, MSSA, Smith strain). As to the kind of experiment: Minimum inhibitory concentration assay, SA100. Particulars: Staphylococcus aureus; S. aureus ATCC 13709, MSSA Smith strain; read-out: MICs SA100. In outline: as §1
The subject of assay [3] is S. aureus SA161 (tet resistant: tet(M) ribosomal protection). Briefly: Minimum inhibitory concentration assay, SA161. The conditions noted are these: Staphylococcus aureus, read-out: MICs SA161. Summed up:
as §1

In assay [4] the test system is E. coli EC155 (tet resistant: tetA efflux). As to the kind of experiment: microbe, parasite or virus in culture. Particulars: Escherichia coli; E. coli tet resistant: tetA (efflux); read-out: MICs EC155. Summed up: as §1
In assay [5] the test system is K. pneumoniae KP153 (tet resistant: tetA efflux). Briefly: microbe, parasite or virus in culture. The conditions noted are these: Klebsiella pneumoniae, read-out: MICs KP153. Summed up:
as §1

Assay [6] deals with S. aureus SA158 (tet resistant: tetK efflux). As to the kind of experiment: microbe, parasite or virus in culture. Particulars: Staphylococcus aureus, read-out: MICs SA158. Summed up:
as §1

For assay [7], the system named is E. faecalis ATCC 29212 (EF103). Briefly: Minimum inhibitory concentration assay, EF103. Particulars: Enterococcus faecalis, ATCC29212, read-out: MICs EF103. Summed up: as §1
The test system of assay [8] is E. faecalis EF159 (tet resistant: tetM). Briefly: Minimum inhibitory concentration assay, EF159. Particulars: Enterococcus faecalis, read-out: MICs EF159. In outline: as §1
Assay [9] deals with S. pneumoniae ATCC 49619 (SP106). Briefly: Minimum inhibitory concentration assay, SP106. The conditions noted are these: Streptococcus pneumoniae, ATCC49619; S. pneumoniae ATCC 49619, wt; read-out: MICs SP106. Summed up:
as §1

Assay [10] concerns S. pneumoniae SP160 (tet resistant: tet M). As to the kind of experiment: Minimum inhibitory concentration assay, SP160. Particulars: Streptococcus pneumoniae, read-out: MICs SP160. In outline: as §1
The test system of assay [11] is E. coli ATCC 25922 (EC107). Briefly: Minimum inhibitory concentration assay, EC107. Particulars: Escherichia coli, ATCC25922; E. coli ATCC 25922, wt; read-out: MICs EC107. Summed up: as §1
Assay [12] has as its system A. baumanii ATCC 19606 (AB110). Briefly: Minimum inhibitory concentration assay, AB110. The conditions noted are these: Acinetobacter baumannii, ATCC19606; A. baumanii ATCC 19606, wt; read-out: MICs AB110. Summed up:
as §1

In assay [13] the test system is P. aeruginosa ATCC 27853 (PA111). As to the kind of experiment: Minimum inhibitory concentration assay, PA111. The conditions noted are these: Pseudomonas aeruginosa, ATCC27853; P. aeruginosa ATCC 27853, wt; read-out: MICs PA111. In outline: as §1
Assay [14] has as its system E. cloacae ATCC 13047 (EC108). As to the kind of experiment: Minimum inhibitory concentration assay, EC108. Particulars: Enterobacter cloacae, ATCC13047; E. cloacae ATCC 13047, wt; read-out: MICs EC108. In outline:
as §1

For assay [15], the system named is K. pneumoniae ATCC 13883 (KP109). As to the kind of experiment: Minimum inhibitory concentration assay, KP109. Particulars: Klebsiella pneumoniae, ATCC13883; K. pneumoniae ATCC 13883, wt; read-out: MICs KP109. In outline: as §1

As to `CN(C)[C@@H]1C(O)=C(C(N)=O)C(=O)[C@@]2(O)C(O)=C3C(=O)c4c(O)c(NC(=O)CN5CC[C@@H](F)C5)cc(F)c4C[C@H]3C[C@@H]12` [Compound 35], the MIC in assay [1] came to 0.25 µg/mL (≈ 0.434 µM); in assay [2], 0.25 µg/mL (≈ 0.434 µM); in [3], 0.5 µg/mL (≈ 0.867 µM); in assay [4], 16 µg/mL (≈ 27.8 µM); in assay [5] it was 8 µg/mL (≈ 13.9 µM); in assay [6], 0.5 µg/mL (≈ 0.867 µM). Moreover, the MIC was 0.125 µg/mL (≈ 0.217 µM) in assay [7]; 0.25 µg/mL (≈ 0.434 µM) in [8]; 0.016 µg/mL (≈ 0.0278 µM) in assay [9]; 0.016 µg/mL (≈ 0.0278 µM) in [10]; 1 µg/mL (≈ 1.73 µM) in assay [11]; 0.25 µg/mL (≈ 0.434 µM) in [12]. The MIC in assay [13] is above 32 µg/mL; in assay [14], 8 µg/mL (≈ 13.9 µM); in [15], 4 µg/mL (≈ 6.94 µM).

Take `CN(C)[C@@H]1C(O)=C(C(N)=O)C(=O)[C@@]2(O)C(O)=C3C(=O)c4c(O)c(NC(=O)CN5Cc6ccccc6C5)cc(F)c4C[C@H]3C[C@@H]12` [Compound 46]: the MIC in assay [1] stood at 0.25 µg/mL (≈ 0.412 µM); in assay [2] it was 0.25 µg/mL (≈ 0.412 µM); in [3], 0.5 µg/mL (≈ 0.824 µM); in assay [4] it was 4 µg/mL (≈ 6.59 µM); in assay [5], 32 µg/mL (≈ 52.8 µM); in assay [6], 0.25 µg/mL (≈ 0.412 µM). In addition, the MIC came out at 0.25 µg/mL (≈ 0.412 µM) in assay [7]; 0.5 µg/mL (≈ 0.824 µM) in [8]; 0.125 µg/mL (≈ 0.206 µM) in [9]; 0.125 µg/mL (≈ 0.206 µM) in [10]; 2 µg/mL (≈ 3.3 µM) in [11]; 0.125 µg/mL (≈ 0.206 µM) in [12]. For the same compound, the MIC in [13] is above 32 µg/mL; in [14], 32 µg/mL (≈ 52.8 µM); in [15], 4 µg/mL (≈ 6.59 µM).

Consider `CCCCCNCC(=O)Nc1cc(F)c2c(c1O)C(=O)C1=C(O)[C@]3(O)C(=O)C(C(N)=O)=C(O)[C@@H](N(C)C)[C@@H]3C[C@@H]1C2` [Compound 26], for which the MIC stood at 1 µg/mL (≈ 1.74 µM) in assay [1]; 1 µg/mL (≈ 1.74 µM) in [2]; 1 µg/mL (≈ 1.74 µM) in assay [3]; 4 µg/mL (≈ 6.96 µM) in [4]; 4 µg/mL (≈ 6.96 µM) in assay [5]; 1 µg/mL (≈ 1.74 µM) in assay [6]. The MIC in [7] is 0.25 µg/mL (≈ 0.435 µM); in assay [8] it was 0.5 µg/mL (≈ 0.87 µM); in [9], at most 0.0156 µg/mL; in assay [10], at most 0.0156 µg/mL; in assay [11] it was 0.5 µg/mL (≈ 0.87 µM); in assay [12], 0.25 µg/mL (≈ 0.435 µM). Moreover, the MIC was found to be 16 µg/mL (≈ 27.8 µM) in assay [13], 2 µg/mL (≈ 3.48 µM) in assay [14] and 2 µg/mL (≈ 3.48 µM) in assay [15].

For the compound `CCN(C)CC(=O)Nc1cc(F)c2c(c1O)C(=O)C1=C(O)[C@]3(O)C(=O)C(C(N)=O)=C(O)[C@@H](N(C)C)[C@@H]3C[C@@H]1C2` [Compound 24], the MIC in assay [1] was determined as 0.25 µg/mL (≈ 0.457 µM); in assay [2], 0.25 µg/mL (≈ 0.457 µM); in [3] it was 0.125 µg/mL (≈ 0.229 µM); in [4] it was 8 µg/mL (≈ 14.6 µM); in assay [5] it was 8 µg/mL (≈ 14.6 µM); in [6], 0.125 µg/mL (≈ 0.229 µM). Besides, the MIC in assay [7] is at most 0.0156 µg/mL; in assay [8] it was at most 0.0156 µg/mL; in [9] it was at most 0.0156 µg/mL; in [10], at most 0.0156 µg/mL; in assay [11], 0.5 µg/mL (≈ 0.915 µM); in assay [12] it was 0.0313 µg/mL (≈ 0.0573 µM). Moreover, the MIC in assay [13] came to 16 µg/mL (≈ 29.3 µM); in [14], 2 µg/mL (≈ 3.66 µM); in assay [15], 1 µg/mL (≈ 1.83 µM).

`COCCCNCC(=O)Nc1cc(F)c2c(c1O)C(=O)C1=C(O)[C@]3(O)C(=O)C(C(N)=O)=C(O)[C@@H](N(C)C)[C@@H]3C[C@@H]1C2` [Compound 27]: the MIC was 2 µg/mL (≈ 3.47 µM) in assay [1]; 2 µg/mL (≈ 3.47 µM) in assay [2]; 4 µg/mL (≈ 6.94 µM) in assay [3]; 32 µg/mL (≈ 55.5 µM) in [4]; 32 µg/mL (≈ 55.5 µM) in [5]; 16 µg/mL (≈ 27.7 µM) in [6]. In addition, the MIC stood at 2 µg/mL (≈ 3.47 µM) in [7]; 4 µg/mL (≈ 6.94 µM) in assay [8]; 0.125 µg/mL (≈ 0.217 µM) in assay [9]; 0.5 µg/mL (≈ 0.867 µM) in assay [10]; 4 µg/mL (≈ 6.94 µM) in assay [11]; 16 µg/mL (≈ 27.7 µM) in assay [12]. Besides, the results for the MIC in [13], in assay [14] and in assay [15] were above 32 µg/mL, 16 µg/mL (≈ 27.7 µM) and 8 µg/mL (≈ 13.9 µM), respectively.
